Measurements published in US9163013B2, “Use of 1H-indazole-3-carboxamide compounds as glycogen synthase kinase 3 beta inhibitors” (AZIENDE CHIMICHE RIUNITE ANGELINI FRANCESCO A.C.R.A.F. …, priority 2012, dated 2015).
pIC50: −log10 of the molar value. Several values for one entry are separate records, joined by “and”; a condition that tells them apart may be missing. Identical values can stand only once. Counter-ions that a name gives are not always drawn. Like-named read-outs stand apart in the source and are kept apart here.

Tests used:
Assay type in all cases: biochemical
human GSK-3β = human GSK-3β (Homo sapiens (Human), UniProt P49841); test: Activity on human GSK-3β, substrate phosphorylation measured by LANCE technology; conditions: for pIC50: LANCE phosphorylation assay, five concentrations 100 μM to 10 nM, read-out: IC50
Experimental: Activity on human GSK-3β was assessed using the following methods (according to Meijer et al., Chem. Biol., 2003-10:1255-1266).
In a first screening assay, compounds were tested in duplicate at a concentration of 10 μM.
Human recombinant enzyme GSK-3β was incubated for 90 minutes at 22° C. in the presence of compounds or vehicle in a reaction buffer containing ATP plus 100 nM unphosphorylated specific substrate peptide (Ulight-[…]-amide). Substrate phosphorylation was measured by LANCE technology (PerkinElmer, Conn., USA).
The results, reported in the following Table 4, are expressed as a percent of inhibition of control specific activity obtained in the presence of the test compounds (as % inhibition at 10 μm).
In a second assay, the same compounds were assayed at five concentrations ranging from 100 μM to 10 nM with ten-fold dilutions in duplicate. Compounds 1 to 7, 9, 11 and 13 to 26 were tested using the same first assay, compounds 8, 10, 12, and 27 to 31 were tested in another assay based on the binding and displacement of AlexaFluor® 647 labeled, ATP-competitive Kinase inhibitor scaffold using LanthaScreen™ TR-FRET technology Eu Kinase assay packet according to manufacturer's instruction (Life Technologies, Italy).
The IC50 values (concentration causing a half maximal inhibition of control specific activity), reported in table 4, were determined by non-linear regression analysis of the inhibition curves generated with mean replicate values using Hill equation curve fitting.

CDK2 (h) (cycA) = CDK2 (h) (cycA) (Homo sapiens (Human), UniProt P24941); test: Kinase selectivity panel and IC50 determination; conditions: for inhibition at 10 µM: duplicate, read-out: % inhibition of control values, CDK2 (h) (cycA)
Experimental: (§1) (a) Compound 1 was tested against a panel of 60 kinases in order to assess its selectivity. The assays were chosen taking into consideration the diversity of assay families.
(§2) Human recombinant kinases were incubated in the presence of specific peptide substrates plus ATP for different times (10, 15, 30, 60 or 90 minutes) at 22° C. Phosphorylated substrate was detected by LANCE or HTRF technology (CISBIO, MA, USA).
(§3) Compound 1 was tested at 10 μM in duplicate.
(§4) The results are expressed as a percent of inhibition of control specific activity obtained in the presence of the test compound 1 and are reported in the following Table 5.
(§5) Compound 1 was also assayed to determine the IC50 values for three different kinases (PCTAIRE1, DYRK1a, and CDK2) in comparison to Gsk3β. The assay was conducted with the same method described above in test I, second assay.
(§6) (b) Compounds 7, 12, 21 and 24 were tested against the same panel of 60 kinases under the same conditions described above for compound 1.
(§7) The results are expressed as a percent of inhibition of control specific activity obtained in the presence of the test compounds and are reported in the following Table 6.

PCTAIRE1 kinase (h) = PCTAIRE1 kinase (h) (Homo sapiens (Human), UniProt Q00536); test: Kinase selectivity panel and IC50 determination; conditions: for inhibition at 10 µM: duplicate, read-out: % inhibition of control values, PCTAIRE1 kinase (h)
Experimental: as §1, §2, §3, §4, §5, §6, §7

DYRK1a (h) = DYRK1a (h) (Homo sapiens (Human), UniProt Q13627); test: Kinase selectivity panel and IC50 determination; conditions: for inhibition at 10 µM: duplicate, read-out: % inhibition of control values, DYRK1a (h)
Experimental: as §1, §2, §3, §4, §5, §6, §7

TRKA (h) = TRKA (h) (Homo sapiens (Human), UniProt P04629); test: Kinase selectivity panel; conditions: duplicate, read-out: % inhibition of control values, TRKA (h)
Experimental: as §1, §2, §3, §4, §6, §7

p38alpha kinase (h) = p38alpha kinase (h) (Homo sapiens (Human), UniProt Q16539); test: Kinase selectivity panel; conditions: duplicate, read-out: % inhibition of control values, p38alpha kinase (h)
Experimental: as §1, §2, §3, §4, §6, §7

PAK1 (h) = PAK1 (h) (Homo sapiens (Human), UniProt Q13153); test: Kinase selectivity panel; conditions: duplicate, read-out: % inhibition of control values, PAK1 (h)
Experimental: as §1, §2, §3, §4, §6, §7

Akt1/PKBalpha (h) = Akt1/PKBalpha (h) (Homo sapiens (Human), UniProt P31749); test: Kinase selectivity panel; conditions: duplicate, read-out: % inhibition of control values, Akt1/PKBalpha (h)
Experimental: as §1, §2, §3, §4, §6, §7

RSK2 (h) = RSK2 (h) (Homo sapiens (Human), UniProt P51812); test: Kinase selectivity panel; conditions: duplicate, read-out: % inhibition of control values, RSK2 (h)
Experimental: as §1, §2, §3, §4, §6, §7

GRK3/BARK2 (h) (ADRBK2) = GRK3/BARK2 (h) (ADRBK2) (Homo sapiens (Human), UniProt P35626); test: Kinase selectivity panel; conditions: duplicate, read-out: % inhibition of control values, GRK3/BARK2 (h) (ADRBK2)
Experimental: as §1, §2, §3, §4, §6, §7

Ret kinase (h) = Ret kinase (h) (Homo sapiens (Human), UniProt P07949); test: Kinase selectivity panel; conditions: duplicate, read-out: % inhibition of control values, Ret kinase (h)
Experimental: as §1, §2, §3, §4, §6, §7

AurA/Aur2 kinase (h) = AurA/Aur2 kinase (h) (Homo sapiens (Human), UniProt O14965); test: Kinase selectivity panel; conditions: duplicate, read-out: % inhibition of control values, AurA/Aur2 kinase (h)
Experimental: as §1, §2, §3, §4, §6, §7

IKKalpha (h) = IKKalpha (h) (Homo sapiens (Human), UniProt O15111); test: Kinase selectivity panel; conditions: duplicate, read-out: % inhibition of control values, IKKalpha (h)
Experimental: as §1, §2, §3, §4, §6, §7

JAK2 (h) = JAK2 (h) (Homo sapiens (Human), UniProt O60674); test: Kinase selectivity panel; conditions: duplicate, read-out: % inhibition of control values, JAK2 (h)
Experimental: as §1, §2, §3, §4, §6, §7

HGK (h) (MAP4K4) = HGK (h) (MAP4K4) (Homo sapiens (Human), UniProt O95819); test: Kinase selectivity panel; conditions: duplicate, read-out: % inhibition of control values, HGK (h) (MAP4K4)
Experimental: as §1, §2, §3, §4, §6, §7

PKCbeta 1 (h) = PKCbeta 1 (h) (Homo sapiens (Human), UniProt P05771); test: Kinase selectivity panel; conditions: duplicate, read-out: % inhibition of control values, PKCbeta 1 (h)
Experimental: as §1, §2, §3, §4, §6, §7

TAOK2 (TAO1) (h) = TAOK2 (TAO1) (h) (Homo sapiens (Human), UniProt Q9UL54); test: Kinase selectivity panel; conditions: duplicate, read-out: % inhibition of control values, TAOK2 (TAO1) (h)
Experimental: as §1, §2, §3, §4, §6, §7

GSK3beta (h) = GSK3beta (h) (Homo sapiens (Human), UniProt P49841); test: Kinase selectivity panel; conditions: for inhibition at 10 µM: duplicate, read-out: % inhibition of control values, GSK3beta (h); for Selectivity for GSK-3β compared to the other kinases of the panel: panel of 60 kinases, 10 μM
Experimental: as §1, §2, §3, §4, §6, §7

[1] = 10 μM, duplicate, human recombinant GSK-3β, 90 minutes at 22° C.
[2] = Table 5A, method of test I, second assay

Sequence of JAK2 (h) (O60674 whole entry): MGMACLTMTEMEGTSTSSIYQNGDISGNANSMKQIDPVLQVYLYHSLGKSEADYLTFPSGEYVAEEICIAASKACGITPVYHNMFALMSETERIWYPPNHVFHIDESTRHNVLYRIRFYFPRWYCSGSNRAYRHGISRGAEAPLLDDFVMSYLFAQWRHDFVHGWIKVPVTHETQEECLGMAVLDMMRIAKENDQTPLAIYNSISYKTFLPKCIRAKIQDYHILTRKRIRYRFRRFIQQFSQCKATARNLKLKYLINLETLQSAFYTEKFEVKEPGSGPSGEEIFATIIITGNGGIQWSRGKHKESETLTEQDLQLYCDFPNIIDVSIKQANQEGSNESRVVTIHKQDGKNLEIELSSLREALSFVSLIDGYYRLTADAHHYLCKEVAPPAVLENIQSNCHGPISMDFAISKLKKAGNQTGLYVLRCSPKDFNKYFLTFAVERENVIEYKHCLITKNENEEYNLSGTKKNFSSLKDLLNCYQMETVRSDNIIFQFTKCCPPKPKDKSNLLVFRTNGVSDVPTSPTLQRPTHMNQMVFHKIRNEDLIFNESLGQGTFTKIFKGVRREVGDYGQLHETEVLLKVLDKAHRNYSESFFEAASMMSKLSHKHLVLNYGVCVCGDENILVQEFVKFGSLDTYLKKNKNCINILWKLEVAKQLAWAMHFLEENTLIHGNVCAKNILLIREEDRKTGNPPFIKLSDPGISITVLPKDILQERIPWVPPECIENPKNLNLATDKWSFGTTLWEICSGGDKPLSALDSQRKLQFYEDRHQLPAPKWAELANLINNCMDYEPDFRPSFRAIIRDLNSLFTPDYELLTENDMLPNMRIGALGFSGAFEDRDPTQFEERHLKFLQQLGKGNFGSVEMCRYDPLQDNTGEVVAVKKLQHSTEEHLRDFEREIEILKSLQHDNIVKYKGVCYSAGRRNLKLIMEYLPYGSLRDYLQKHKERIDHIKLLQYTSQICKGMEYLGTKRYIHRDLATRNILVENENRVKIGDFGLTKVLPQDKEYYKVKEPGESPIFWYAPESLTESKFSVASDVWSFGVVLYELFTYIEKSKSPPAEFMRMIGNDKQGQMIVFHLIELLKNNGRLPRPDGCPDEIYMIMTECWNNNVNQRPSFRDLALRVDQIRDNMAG
Sequence of PKCbeta 1 (h) (P05771 whole entry): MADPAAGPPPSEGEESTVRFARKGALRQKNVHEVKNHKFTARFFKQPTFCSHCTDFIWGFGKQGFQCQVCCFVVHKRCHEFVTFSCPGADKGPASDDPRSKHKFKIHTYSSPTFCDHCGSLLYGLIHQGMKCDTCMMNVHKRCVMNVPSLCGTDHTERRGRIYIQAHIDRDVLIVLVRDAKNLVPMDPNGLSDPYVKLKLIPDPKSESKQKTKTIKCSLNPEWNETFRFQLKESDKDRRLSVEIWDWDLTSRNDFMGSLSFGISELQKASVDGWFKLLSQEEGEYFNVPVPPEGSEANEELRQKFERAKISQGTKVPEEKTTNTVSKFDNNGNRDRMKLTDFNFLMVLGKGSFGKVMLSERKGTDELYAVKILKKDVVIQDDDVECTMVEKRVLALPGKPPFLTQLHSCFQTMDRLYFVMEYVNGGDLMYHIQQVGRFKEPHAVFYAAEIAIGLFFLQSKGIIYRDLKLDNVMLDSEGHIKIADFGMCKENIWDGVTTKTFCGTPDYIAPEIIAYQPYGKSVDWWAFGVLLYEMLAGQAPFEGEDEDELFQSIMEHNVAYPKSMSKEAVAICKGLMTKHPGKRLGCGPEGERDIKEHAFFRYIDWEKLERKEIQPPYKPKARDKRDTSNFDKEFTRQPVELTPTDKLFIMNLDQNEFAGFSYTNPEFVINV
Sequence of HGK (h) (MAP4K4) (O95819 whole entry): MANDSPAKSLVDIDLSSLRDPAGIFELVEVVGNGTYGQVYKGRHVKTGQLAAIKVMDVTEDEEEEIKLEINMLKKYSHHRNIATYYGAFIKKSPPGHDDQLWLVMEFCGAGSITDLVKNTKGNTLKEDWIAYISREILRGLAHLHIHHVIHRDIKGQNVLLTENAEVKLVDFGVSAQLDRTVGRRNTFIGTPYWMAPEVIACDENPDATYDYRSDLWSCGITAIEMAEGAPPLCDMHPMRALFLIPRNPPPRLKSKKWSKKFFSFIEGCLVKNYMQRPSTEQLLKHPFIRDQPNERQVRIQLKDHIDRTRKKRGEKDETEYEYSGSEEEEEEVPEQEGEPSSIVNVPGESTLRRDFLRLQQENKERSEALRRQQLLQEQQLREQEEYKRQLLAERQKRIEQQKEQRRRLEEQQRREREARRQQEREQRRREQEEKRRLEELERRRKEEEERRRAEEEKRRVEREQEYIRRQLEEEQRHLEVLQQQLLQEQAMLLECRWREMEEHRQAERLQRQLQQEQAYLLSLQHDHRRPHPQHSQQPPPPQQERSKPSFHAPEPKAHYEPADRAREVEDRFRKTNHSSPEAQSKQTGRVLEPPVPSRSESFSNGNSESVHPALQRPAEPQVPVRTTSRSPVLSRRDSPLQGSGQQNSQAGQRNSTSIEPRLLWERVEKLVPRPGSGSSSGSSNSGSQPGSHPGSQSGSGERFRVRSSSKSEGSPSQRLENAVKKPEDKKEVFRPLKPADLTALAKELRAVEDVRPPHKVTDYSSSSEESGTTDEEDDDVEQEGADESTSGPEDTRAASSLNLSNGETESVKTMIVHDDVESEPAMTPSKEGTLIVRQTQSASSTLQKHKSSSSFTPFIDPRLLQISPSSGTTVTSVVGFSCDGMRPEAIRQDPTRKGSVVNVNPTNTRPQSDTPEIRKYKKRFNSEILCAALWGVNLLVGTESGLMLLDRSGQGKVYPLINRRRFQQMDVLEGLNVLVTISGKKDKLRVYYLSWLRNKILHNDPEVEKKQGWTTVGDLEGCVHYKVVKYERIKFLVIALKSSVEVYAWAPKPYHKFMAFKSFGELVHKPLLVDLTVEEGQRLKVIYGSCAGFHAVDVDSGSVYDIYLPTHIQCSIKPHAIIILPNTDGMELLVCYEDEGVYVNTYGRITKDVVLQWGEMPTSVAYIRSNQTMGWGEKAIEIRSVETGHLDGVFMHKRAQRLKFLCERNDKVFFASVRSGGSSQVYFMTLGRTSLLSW
Sequence of PAK1 (h) (Q13153 whole entry): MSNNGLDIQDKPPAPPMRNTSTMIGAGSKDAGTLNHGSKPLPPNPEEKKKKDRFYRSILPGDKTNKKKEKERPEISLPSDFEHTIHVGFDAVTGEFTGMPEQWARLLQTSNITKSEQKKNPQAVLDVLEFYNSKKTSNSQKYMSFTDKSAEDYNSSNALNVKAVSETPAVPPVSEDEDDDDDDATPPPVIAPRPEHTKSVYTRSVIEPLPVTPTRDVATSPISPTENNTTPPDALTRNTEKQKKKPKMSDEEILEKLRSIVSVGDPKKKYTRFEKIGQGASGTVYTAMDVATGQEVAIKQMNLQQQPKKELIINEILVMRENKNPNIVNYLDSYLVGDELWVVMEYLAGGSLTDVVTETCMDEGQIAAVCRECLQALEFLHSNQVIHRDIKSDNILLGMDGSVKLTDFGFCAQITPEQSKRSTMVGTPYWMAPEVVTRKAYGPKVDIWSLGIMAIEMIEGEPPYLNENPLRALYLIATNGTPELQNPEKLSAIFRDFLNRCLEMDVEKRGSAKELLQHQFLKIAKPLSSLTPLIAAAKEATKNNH
Sequence of GRK3/BARK2 (h) (ADRBK2) (P35626 whole entry): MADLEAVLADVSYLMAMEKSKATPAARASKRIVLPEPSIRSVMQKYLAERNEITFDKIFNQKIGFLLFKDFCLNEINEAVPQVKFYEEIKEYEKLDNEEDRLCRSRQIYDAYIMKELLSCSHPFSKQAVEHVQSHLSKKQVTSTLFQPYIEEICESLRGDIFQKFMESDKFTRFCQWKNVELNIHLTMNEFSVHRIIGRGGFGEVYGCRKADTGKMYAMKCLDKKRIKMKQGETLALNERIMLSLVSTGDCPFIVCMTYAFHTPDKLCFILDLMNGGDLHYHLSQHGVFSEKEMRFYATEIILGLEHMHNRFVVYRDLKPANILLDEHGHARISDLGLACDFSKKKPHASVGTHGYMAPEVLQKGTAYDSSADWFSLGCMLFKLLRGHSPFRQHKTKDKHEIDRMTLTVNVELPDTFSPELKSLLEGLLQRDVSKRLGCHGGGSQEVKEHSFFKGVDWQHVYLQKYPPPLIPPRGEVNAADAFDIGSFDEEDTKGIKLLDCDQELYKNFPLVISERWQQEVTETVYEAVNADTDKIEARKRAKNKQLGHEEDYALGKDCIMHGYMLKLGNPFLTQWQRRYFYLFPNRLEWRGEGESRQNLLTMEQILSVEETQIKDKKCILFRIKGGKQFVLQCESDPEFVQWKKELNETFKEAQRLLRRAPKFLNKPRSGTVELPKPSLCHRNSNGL
Sequence of PCTAIRE1 kinase (h) (Q00536 whole entry): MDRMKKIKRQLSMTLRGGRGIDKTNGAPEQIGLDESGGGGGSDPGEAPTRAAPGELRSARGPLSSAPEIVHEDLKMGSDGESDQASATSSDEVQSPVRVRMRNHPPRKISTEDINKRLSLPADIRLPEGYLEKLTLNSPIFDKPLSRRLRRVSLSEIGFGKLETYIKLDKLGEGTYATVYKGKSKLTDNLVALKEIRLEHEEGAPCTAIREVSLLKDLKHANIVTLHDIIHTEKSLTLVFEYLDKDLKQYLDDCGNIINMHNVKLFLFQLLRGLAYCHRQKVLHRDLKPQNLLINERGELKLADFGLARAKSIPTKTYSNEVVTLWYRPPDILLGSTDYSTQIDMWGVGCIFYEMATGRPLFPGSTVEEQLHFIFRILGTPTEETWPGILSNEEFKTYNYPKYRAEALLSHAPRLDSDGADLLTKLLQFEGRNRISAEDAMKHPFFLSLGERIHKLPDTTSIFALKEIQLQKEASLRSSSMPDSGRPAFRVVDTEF

| pIC50 (human GSK-3β; duplicate) | inhibition at 10 µM (CDK2 (h) (cycA)) | inhibition at 10 µM (PCTAIRE1 kinase (h)) | inhibition at 10 µM (DYRK1a (h)) | inhibition at 10 µM (TRKA (h)) | inhibition at 10 µM (p38alpha kinase (h)) | inhibition at 10 µM (PAK1 (h)) | inhibition at 10 µM (Akt1/PKBalpha (h)) | inhibition at 10 µM (RSK2 (h)) | inhibition at 10 µM (GRK3/BARK2 (h) (ADRBK2)) | inhibition at 10 µM (Ret kinase (h)) | inhibition at 10 µM (AurA/Aur2 kinase (h)) | inhibition at 10 µM (IKKalpha (h)) | inhibition at 10 µM (JAK2 (h)) | inhibition at 10 µM (HGK (h) (MAP4K4)) | inhibition at 10 µM (PKCbeta 1 (h)) | inhibition at 10 µM (TAOK2 (TAO1) (h)) | inhibition at 10 µM (GSK3beta (h)) | Selectivity for GSK-3β compared to the other kinases of the panel (GSK3beta (h)) | Compound | further results |
| --- | --- | --- | --- | --- | --- | --- | --- | --- | --- | --- | --- | --- | --- | --- | --- | --- | --- | --- | --- | --- |
| > 6.22 and 6.46 | 27% | 87% | 63% | 10% | 0% | 4% | 7% | 3% | 8% | 1% | 1% | 0% | 0% | 17% | 9% | 41% | 92% | good selectivity profile | COc1ccc2[nH]nc(C(=O)NCC3CCN(CCc4ccc(O)cc4)CC3)c2c1 [Compound 1, N-({1-[2-(4-hydroxyphenyl)ethyl]-piperidin-4-yl}methyl)-5-methoxy-1H-indazole-3-carboxamide] | % Inhibition [10 μM] (human GSK-3β; [1]): 94%; inhibition at 10 µM (human GSK-3β; [1]): > 90%; IC50 (human GSK-3β; Table 5A, method of test I, second assay, read-out: IC50 [μM] Gsk3β): 0.35 µM; IC50 (CDK2 (h) (cycA); [2]): 36 µM; IC50 (PCTAIRE1 kinase (h); [2]): 1.5 µM; IC50 (DYRK1a (h); [2]): 2.9 µM |
| 6.40 | 36% | 1% | 59% | 1% | 0% | 1% | 0% | 1% | 0% | 0% | 4% | 2% | 0% | 19% | 0% | 8% | 94% | good selectivity profile | COc1ccc2[nH]nc(C(=O)NCC3CCN(Cc4ccc(C(=O)O)o4)CC3)c2c1 [Compound 24, 5-{[4-({[(5-Methoxy-1H-indazol-3-yl)carbonyl]amino}methyl)piperidin-1-yl]methyl}furan-2-carboxylic acid] | – |

| Compound | pIC50 (human GSK-3β; duplicate) | inhibition at 10 µM (CDK2 (h) (cycA)) | inhibition at 10 µM (PCTAIRE1 kinase (h)) | inhibition at 10 µM (DYRK1a (h)) | inhibition at 10 µM (TRKA (h)) | inhibition at 10 µM (p38alpha kinase (h)) | inhibition at 10 µM (PAK1 (h)) | inhibition at 10 µM (Akt1/PKBalpha (h)) | inhibition at 10 µM (RSK2 (h)) | inhibition at 10 µM (GRK3/BARK2 (h) (ADRBK2)) | inhibition at 10 µM (Ret kinase (h)) | inhibition at 10 µM (AurA/Aur2 kinase (h)) | inhibition at 10 µM (IKKalpha (h)) | inhibition at 10 µM (JAK2 (h)) | inhibition at 10 µM (HGK (h) (MAP4K4)) | inhibition at 10 µM (PKCbeta 1 (h)) | inhibition at 10 µM (TAOK2 (TAO1) (h)) | inhibition at 10 µM (GSK3beta (h)) | Selectivity for GSK-3β compared to the other kinases of the panel (GSK3beta (h)) | further results |
| --- | --- | --- | --- | --- | --- | --- | --- | --- | --- | --- | --- | --- | --- | --- | --- | --- | --- | --- | --- | --- |
| COc1ccncc1-c1ccc2[nH]nc(C(=O)NCC3CCN(Cc4ccc(C(=O)O)o4)CC3)c2c1 [Compound 21, 5-({4-[({[5-(4-Methoxypyridin-3-yl)-1H-indazol-3-yl]carbonyl}amino)methyl]piperidin-1-yl}methyl)furan-2-carboxylic acid formate] | 8.00 | 100% | 94% | 99% | 4% | 1% | 4% | 0% | 20% | 4% | 0% | 30% | 5% | 2% | 99% | 0% | 54% | 96% | good affinity to GSK-3β when compared to most of other kinases of the same family | – |
